Assay results: patent publication US4730069A, “Cis-platinum complexes with a pentaerythritol derivative as the ligand, a process for their preparation and a pharmaceutical agent containing these compounds” (Behringwerke Aktiengesellschaft, priority 1984, dated 1988)

Tested on: NMRI mice
Assay: Determination of the acute toxicity (NMRI mice, intravenous)
Type: in vivo
Details: intravenous on day 0, survival on day 14, which LD not stated
Procedure: To determine the acute toxicity, NMRI mice are injected intravenously on day 0 with different doses of the test substance, dissolved in 0.5 ml of physiological saline solution. Control groups receive only 0.5 ml of physiological saline solution. 5 mice are used per concentration of the test substance. On day 14, the number of surviving mice is determined and the LD5, LD50 and LD95 are determined therefrom by the Litchfield Wilcoxon method. The toxicity of the compounds described here is summarized in comparison with cisplatin in Table 1.

In the case of “5,5-Bis-(aminomethyl)-2-methyl-2-octadecyl-1,3-dioxane-platinum(II) hydroxide [Compound 57]”, the “Acute toxicity (LD5, LD50 and LD95 by the Litchfield Wilcoxon method) (Table 1, column c)” value was 3.4.
